Results on 79 compounds are retold here after the METLIN SMRT retention time set (Domingo-Almenara et al. 2019).

A short description of this data set: gradient 5% acetonitrile 3 min, to 50% in 2 min, to 85% in 15 min, held 3 min, 100 µL/min. Particulars: column: Zorbax Extend-C18 2.1 x 50 mm; eluents: water / acetonitrile, 0.1% formic acid. The method in brief: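 The system's dead and dwell volumes were 40 μL and 900 μL, with a Zorbax Extend-C18 column (2.1 × 50 mm, 1.8 μm) run at 100 μL/min in water and acetonitrile containing 0.1% formic acid each. Pure standards were analyzed in mixtures of ~100 molecules by HPLC–quadrupole time-of-flight mass spectrometry in positive and negative ionization mode. Retention time was assigned from computationally picked, manually inspected adduct peaks.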
For `Fc1cccc(-c2noc(-c3ccc(N4CCN(c5ccccn5)CC4)nc3)n2)c1`, the RP-LC retention time came to 799 s.
The compound `Cc1ccc(-c2coc(-c3cccc(NS(=O)(=O)c4ccc(Cl)s4)c3)n2)cc1` had an RP-LC retention time of 1310 s.
Turning to `O=C(NCc1ccco1)c1ccc2c(c1)nc1n2CCCCC1`, the RP-LC retention time was determined as 596 s.
`COCCn1cc2c3c(cccc31)CN(C(=O)Nc1cc(Cl)c(OC)cc1OC)CC2` gave an RP-LC retention time of 993 s.
Compound `CCCS(=O)(=O)N1CC(=O)N(c2ccc(F)cc2C)C(C)(C(=O)NC2CCCCCC2)C1` (centres undefined) yielded an RP-LC retention time of 988 s.
As for `CCn1c(=O)c(N2CCN(C(=O)Nc3ccc(Br)cc3)CC2)nc2cccnc21`, the RP-LC retention time is 1030 s.
With `O=C(COc1ccc(F)cc1)N1CCOc2ccc(N3CCOCC3)cc2C1`, the RP-LC retention time amounted to 787 s.
Take `CC(CCc1ccccc1)NC(=O)CCC(=O)N1CCCn2nc(-c3cccn3C)cc21` (centres undefined): the RP-LC retention time stood at 842 s.
Regarding `O=C(NCc1ccc(F)cc1)Nc1cnc2c(c1)CCC2`, the RP-LC retention time was 531 s.
As to `Cc1ccc(-c2nc(NCc3cccnc3)ncc2C(=O)O)cc1`, the RP-LC retention time stood at 587 s.
In turn, `CCOc1ccc(-c2ccc(C)c(NC(=O)c3ccc(S(=O)(=O)N(C)C)cc3)c2)nn1` returned an RP-LC retention time of 778 s.
With `CCc1cc(C2CCCN2C(=O)Nc2ccc(C(=O)OC)cc2)on1` (centres undefined), the RP-LC retention time worked out at 801 s.
Compound `CC(Cc1ccco1)NC(=O)c1cc2n(n1)CCCN(Cc1ccccc1)C2=O` (centres undefined) gave an RP-LC retention time of 828 s.
The compound `CC1CSc2ccc(S(=O)(=O)N3CCN(c4ccccn4)CC3)cc2NC1=O` (centres undefined) showed an RP-LC retention time of 647 s.
Take `O=C(NC1CC1)c1ccc(OCC2CCN(C(=O)Cc3ccc(Cl)cc3)CC2)cc1`: the RP-LC retention time was 868 s.
Regarding `Cc1c(N2C(=O)C3C4C=CC(C4)C3C2=O)c(=O)n(-c2ccccc2)n1C` (centres undefined), the RP-LC retention time was 615 s.
The result for `CCN1C(=O)COc2ccc(-c3noc(CNS(=O)(=O)c4ccc(Cl)cc4)n3)cc21` reads 904 s.
The compound `CCOC(=O)c1csc(NC(=O)c2sc3ccccc3c2Cl)n1` yielded an RP-LC retention time of 999 s.
For the compound `CC1(C)CC(=O)c2cn(-c3ccccc3)c(=O)c(C(=O)NC3CCCC3)c2C1`, the RP-LC retention time was determined as 932 s.
On to `COCCOCC1CCN(C(=O)COc2cccc(OC)c2)CC1`, for which the RP-LC retention time was 709 s.
Regarding `Cc1ccc(C(=O)N2CCC(n3c(-c4ccoc4)nc4cccnc43)C2)cc1C` (centres undefined), the RP-LC retention time was determined as 806 s.
For the compound `Cc1ccc(CN2C(=O)Cn3cccc3C2C(=O)NC2CCCC2)cc1` (centres undefined), the RP-LC retention time worked out at 892 s.
`CN1C(=O)c2cccn2CC1C(=O)N1CCN(c2ncccn2)CC1` (centres undefined) showed an RP-LC retention time of 609 s.
With `Cc1cc2nn(CC(=O)Nc3cc(F)cc(F)c3)c(=O)n2c(Nc2ccc(F)c(C)c2)n1`, the RP-LC retention time turned out to be 1070 s.
With `CC(C)(C)C(=O)Nc1ccc(N2CCN(CCC#N)CC2)cc1C(=O)O`, the RP-LC retention time came out at 611 s.
The result for `CCc1cccc(C)c1NC(=O)Cn1nc2c3ccccc3ncn2c1=O` reads 705 s; that for `Cc1nn(CC(=O)N2CCCC2)c(=O)c2nc(C(C)C)sc12`, 680 s; that for `CCC1=C(c2ccc(C)cc2)S(=O)(=O)N=C1N1CCC(C(=O)NC(C)Cc2ccco2)CC1` (centres undefined), 894 s.
In the case of `CCOC(=O)C1=C(CN2CCN(C3CCCCC3)CC2)NC(=O)NC1c1ccccc1` (centres undefined), the RP-LC retention time stood at 658 s.
For the compound `CN(C)c1cccc(C(=O)NCc2nn(C)c3ccccc23)c1`, the RP-LC retention time came out at 709 s.
For the compound `CN(CC#N)C(=O)c1cc2c(Cl)ccc3c2n1CCO3`, the RP-LC retention time was found to be 865 s.
As to `COc1ccc(OC)c(CNC(=O)c2cn3cccc(C)c3n2)c1`, the RP-LC retention time is 730 s.
The figure for `CCn1nccc1-c1cccc(-c2noc(-c3ccc(OC)cc3)n2)c1` is 1210 s.
`CCCCNC(=O)CCCN1C(=O)CCn2nc(C)cc21`: the RP-LC retention time turned out to be 629 s.
Compound `Cc1ccc(N2C(=O)c3cccnc3C2CC(=O)N2CCN(c3ccccn3)CC2)cc1` (centres undefined) returned an RP-LC retention time of 579 s.
With `O=C(Nc1ccc(F)c(F)c1)c1cc(C2CC2)on1`, the RP-LC retention time is 860 s.
Regarding `CC(C)Cn1c(=O)c(C(=O)NC2CCCC2)nc2cccnc21`, the RP-LC retention time was found to be 936 s.
The figure for `CCOc1ccc(S(=O)(=O)Nc2ccc3nc(N4CCN(C)CC4)cc(C(=O)O)c3c2)cc1` is 596 s.
In turn, `O=C(Nc1ccc2c(c1)OCO2)Nc1cccn2c(C3CCC3)nnc12` gave an RP-LC retention time of 801 s.
Compound `CC(=O)c1cccc(NC(=O)CN2C(=O)COc3ccc(C(=O)N(C)C)cc32)c1` registered an RP-LC retention time of 651 s.
The result for `CCNC(=O)c1cc(C(C)C)[nH]n1` reads 618 s; that for `COc1ccc(C2C(C(=O)c3cccs3)=C(O)C(=O)N2CCCN2CCOCC2)cc1OC` (centres undefined), 613 s.
The figure for `COCCc1nncn1C1CCN(C(=O)c2cc(F)ccc2F)CC1` is 618 s; for `O=C(Nc1nccs1)C1CCN(C(=O)C2CC(=O)N(c3ccccc3)C2)CC1` (centres undefined) it is 658 s.
`O=c1c2nc(-c3ccc4c(c3)OCO4)cn2ccn1-c1ccc(F)cc1` returned an RP-LC retention time of 772 s.
`COc1ccc(NS(=O)(=O)c2cc3c(s2)CCN(C(=O)C2CCC2)C3)cc1Cl` showed an RP-LC retention time of 893 s.
In turn, `O=C(NC1CCN(c2cc(-c3ccc(Cl)cc3)[nH]n2)C1)c1ccc(F)c(F)c1` (centres undefined) had an RP-LC retention time of 839 s.
Consider `COC(=O)c1ccc(N2C=C(C#N)S(=O)(=O)c3ccc(F)cc32)cc1`, for which the RP-LC retention time came out at 875 s.
The result for `O=C(CCC1CCCN(c2cc(NC3CC3)ncn2)C1)NCc1ccccn1` (centres undefined) reads 558 s.
Consider `COc1ccc(NC(=O)C2CCC(=O)N2S(=O)(=O)c2ccc(C)c(C)c2)cc1Cl` (centres undefined), for which the RP-LC retention time was found to be 956 s.
With `O=C(NCc1ccc(Br)cc1)c1ccc2ncnc(N3CCCC3)c2c1`, the RP-LC retention time stood at 679 s.
`O=C(c1ccc2nsnc2c1)N1CCN(c2ccc(F)cc2)CC1`: the RP-LC retention time worked out at 811 s.
Turning to `CCc1nnc(NC(=O)CSc2nccn2-c2ccc(F)cc2)s1`, the RP-LC retention time is 653 s.
`O=c1c2sccc2n(Cc2nc(-c3ccc(F)c(Br)c3)no2)c(=O)n1-c1ccccc1` came in with an RP-LC retention time of 961 s.
The result for `COc1ccc(C(=O)Nc2c(C(=O)Nc3ccccc3OC)oc3cccnc23)cc1` reads 783 s; that for `CC(C)n1cc(S(=O)(=O)Nc2ccc(F)cc2)c2cccnc21`, 869 s.
The figure for `O=C(Nc1ccc(Br)cc1F)C1CCCN(S(=O)(=O)Cc2ccc(F)cc2)C1` (centres undefined) is 1040 s.
Compound `COCCNc1c(-c2cccc(F)c2)nc2sc(C(=O)N(C)C)c(C)n12` displayed an RP-LC retention time of 742 s.
In turn, `COc1ccc(-c2nc(Cn3c(C)cc(C)c(-c4nc(-c5ccccc5)no4)c3=O)c(C)o2)cc1` returned an RP-LC retention time of 1230 s.
The result for `Cc1ccc(-c2nc3nc(C)cc(C)n3c2Nc2ccccc2C)cc1` reads 782 s; that for `O=C(NCCc1ccccc1)N1CCCC1c1nc(-c2cccc(Cl)c2)no1` (centres undefined), 1050 s; that for `CC(=O)N1CCc2cc(S(=O)(=O)C(C)CC(=O)N3CCN(c4ccccc4)CC3)ccc21` (centres undefined), 787 s.
Turning to `CCn1cc(-c2nc(CC(=O)NCc3cccc(Cl)c3)cs2)c2cccnc21`, the RP-LC retention time was determined as 903 s.
`CC(C)CNC(=O)N1CCN(Cc2nc3cccnc3n2-c2cccc(F)c2)CC1` had an RP-LC retention time of 634 s.
The result for `C[C@H]1CN(C(=O)COc2ccc(F)cc2)C[C@@H]1c1nc(-c2ccncc2)no1` reads 793 s.
The compound `COc1ccc(Nc2c(-c3ccc(N4CCOCC4)cc3)nc3cnccn23)cc1OC` displayed an RP-LC retention time of 674 s.
The result for `COc1ccc(C2C(C(=O)Nc3cc(OC)ccc3OC)c3ccccc3C(=O)N2C)cc1` (centres undefined) reads 929 s; that for `COCCN(CC(=O)N1CCc2sccc2C1COc1cccc(F)c1)C(=O)C(C)C` (centres undefined), 912 s.
Turning to `CCc1ccccc1S(=O)(=O)N1CCC(C(=O)NCc2csc(-c3ccccc3)n2)CC1`, the RP-LC retention time was found to be 999 s.
For `COc1cccc(NC(=O)NCCCN2CCN(c3ccccc3)CC2)c1OC`, the RP-LC retention time came to 582 s.
Turning to `COc1ccc(OC)c2nc3c(C(=O)NCCN(C)C)cccc3nc12`, the RP-LC retention time was 595 s.
Take `CCOc1ccc(N2CC(c3nc4ccccc4n3CCN3CCOCC3)CC2=O)cc1` (centres undefined): the RP-LC retention time came to 618 s.
For the compound `COc1ccc(NC(=O)C2CCCN(c3cnc4nccnc4c3)C2)c(C)c1` (centres undefined), the RP-LC retention time amounted to 693 s.
Consider `Cc1cn2c(CCC(=O)NCCOc3ccc(F)cc3)csc2n1`, for which the RP-LC retention time stood at 566 s.
The figure for `CCn1c(CCNC(=O)c2ccccc2)nc2cccnc21` is 598 s; for `Cc1ccccc1NC(=O)N1CCC(CCNC(=O)C2(c3ccccc3)CC2)CC1` it is 873 s; for `Cc1nc(C)c(C(=O)NC2CCc3nn(CC4CC4)c(=O)n3CC2)s1` (centres undefined) it is 597 s.
`O=C(Nc1ccc(F)c(F)c1)c1cccn1Cc1noc(C2CC2)n1` came in with an RP-LC retention time of 966 s.
Turning to `Cc1cccc(S(=O)(=O)N2CCCC(OCc3nc(C)no3)C2)c1` (centres undefined), the RP-LC retention time turned out to be 877 s.
